# According to PubChem BioAssay (NCI):
#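 How tested: cells in 96-well plates exposed to compound for 48 hours at five concentrations. The concentration for full growth arrest is given as TGI.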
# Columns and labels:
# Assay in all cases: NCI tumour cell line growth inhibition, 48 h
# 786-0 renal = test system: 786-0 renal
# A498 renal = test system: A498 renal
# A549 NSCLC = test system: A549 NSCLC
# ACHN renal = test system: ACHN renal
# BT-549 breast = test system: BT-549 breast
# CAKI-1 renal = test system: CAKI-1 renal
# COLO 205 colon = test system: COLO 205 colon
# DU-145 prostate = test system: DU-145 prostate
# EKVX NSCLC = test system: EKVX NSCLC
# HCC-2998 colon = test system: HCC-2998 colon
# HCT-116 colon = test system: HCT-116 colon
# HCT-15 colon = test system: HCT-15 colon
# HL-60(TB) leukemia = test system: HL-60(TB) leukemia
# HOP-62 NSCLC = test system: HOP-62 NSCLC
# HOP-92 NSCLC = test system: HOP-92 NSCLC
# HS 578T breast = test system: HS 578T breast
# HT29 colon = test system: HT29 colon
# IGROV1 ovarian = test system: IGROV1 ovarian
# K-562 leukemia = test system: K-562 leukemia
# KM12 colon = test system: KM12 colon
# M14 melanoma = test system: M14 melanoma
# MCF7 breast = test system: MCF7 breast
# MDA-MB-231 breast = test system: MDA-MB-231 breast
# MDA-MB-435 = test system: MDA-MB-435
# MDA-N = test system: MDA-N
# NCI-H226 lung = test system: NCI-H226 lung
# NCI-H23 lung = test system: NCI-H23 lung
# NCI-H460 lung = test system: NCI-H460 lung
# NCI-H522 lung = test system: NCI-H522 lung
# OVCAR-4 ovarian = test system: OVCAR-4 ovarian
# OVCAR-5 ovarian = test system: OVCAR-5 ovarian
# OVCAR-8 ovarian = test system: OVCAR-8 ovarian
# PC-3 prostate = test system: PC-3 prostate
# RXF 393 renal = test system: RXF 393 renal
# SF-268 CNS = test system: SF-268 CNS
# SF-295 CNS = test system: SF-295 CNS
# SF-539 CNS = test system: SF-539 CNS
# SK-MEL-2 melanoma = test system: SK-MEL-2 melanoma
# SK-MEL-28 melanoma = test system: SK-MEL-28 melanoma
# SK-MEL-5 melanoma = test system: SK-MEL-5 melanoma
# SK-OV-3 ovarian = test system: SK-OV-3 ovarian
# SN12C renal = test system: SN12C renal
# SNB-19 CNS = test system: SNB-19 CNS
# SNB-75 CNS = test system: SNB-75 CNS
# SW-620 colon = test system: SW-620 colon
# TK-10 renal = test system: TK-10 renal
# U251 CNS = test system: U251 CNS
# UACC-257 melanoma = test system: UACC-257 melanoma
# UACC-62 melanoma = test system: UACC-62 melanoma
# UO-31 renal = test system: UO-31 renal
# CCRF-CEM leukemia = test system: CCRF-CEM leukemia
# LOX IMVI melanoma = test system: LOX IMVI melanoma
# MALME-3M melanoma = test system: MALME-3M melanoma
# MOLT-4 leukemia = test system: MOLT-4 leukemia
# NCI/ADR-RES ovarian = test system: NCI/ADR-RES ovarian
# OVCAR-3 ovarian = test system: OVCAR-3 ovarian
# RPMI-8226 leukemia = test system: RPMI-8226 leukemia
# SR leukemia = test system: SR leukemia
# T-47D breast = test system: T-47D breast
smiles,measurement,setting,value
CCN(CC)Cc1cc(Nc2c3ccccc3nc3c2[nH]c2ccccc23)cc(CN(CC)CC)c1O,TGI,786-0 renal,0.974 µM
same,TGI,A498 renal,2.89 µM
same,TGI,A549 NSCLC,10.4 µM
same,TGI,ACHN renal,3.48 µM
same,TGI,BT-549 breast,2.83 µM
same,TGI,CAKI-1 renal,4.26 µM
same,TGI,COLO 205 colon,1.74 µM
same,TGI,DU-145 prostate,7.99 µM
same,TGI,EKVX NSCLC,3.12 µM
same,TGI,HCC-2998 colon,2.27 µM
same,TGI,HCT-116 colon,3.33 µM
same,TGI,HCT-15 colon,3.4 µM
same,TGI,HL-60(TB) leukemia,> 100 µM
same,TGI,HOP-62 NSCLC,2.26 µM
same,TGI,HOP-92 NSCLC,3.86 µM
same,TGI,HS 578T breast,4.71 µM
same,TGI,HT29 colon,5.1 µM
same,TGI,IGROV1 ovarian,3.29 µM
same,TGI,K-562 leukemia,> 100 µM
same,TGI,KM12 colon,10.6 µM
same,TGI,M14 melanoma,1.33 µM
same,TGI,MCF7 breast,9.07 µM
same,TGI,MDA-MB-231 breast,2.62 µM
same,TGI,MDA-MB-435,2.04 µM
same,TGI,MDA-N,2.07 µM
same,TGI,NCI-H226 lung,6.01 µM
same,TGI,NCI-H23 lung,2.62 µM
same,TGI,NCI-H460 lung,2.01 µM
same,TGI,NCI-H522 lung,2.47 µM
same,TGI,OVCAR-4 ovarian,1.81 µM
same,TGI,OVCAR-5 ovarian,9.21 µM
same,TGI,OVCAR-8 ovarian,2.89 µM
same,TGI,PC-3 prostate,2.75 µM
same,TGI,RXF 393 renal,1.25 µM
same,TGI,SF-268 CNS,4.73 µM
same,TGI,SF-295 CNS,2.88 µM
same,TGI,SF-539 CNS,2.29 µM
same,TGI,SK-MEL-2 melanoma,3.24 µM
same,TGI,SK-MEL-28 melanoma,5.3 µM
same,TGI,SK-MEL-5 melanoma,2.95 µM
same,TGI,SK-OV-3 ovarian,17 µM
same,TGI,SN12C renal,2.18 µM
same,TGI,SNB-19 CNS,5.75 µM
same,TGI,SNB-75 CNS,2.97 µM
same,TGI,SW-620 colon,2.47 µM
same,TGI,TK-10 renal,11.7 µM
same,TGI,U251 CNS,2.19 µM
same,TGI,UACC-257 melanoma,2.86 µM
same,TGI,UACC-62 melanoma,3.02 µM
same,TGI,UO-31 renal,4.62 µM
COc1ccc(CC2C3=C(CCN2C(=O)C2CCC2)CC2(CC3)OCCO2)cc1O (stereo not given),TGI,786-0 renal,> 100 µM
same,TGI,A498 renal,> 100 µM
same,TGI,A549 NSCLC,> 100 µM
same,TGI,ACHN renal,> 100 µM
same,TGI,CAKI-1 renal,> 100 µM
same,TGI,CCRF-CEM leukemia,> 100 µM
same,TGI,COLO 205 colon,48 µM
same,TGI,DU-145 prostate,61.6 µM
same,TGI,EKVX NSCLC,> 100 µM
same,TGI,HCC-2998 colon,> 100 µM
same,TGI,HCT-116 colon,> 100 µM
same,TGI,HCT-15 colon,46.2 µM
same,TGI,HL-60(TB) leukemia,76.9 µM
same,TGI,HOP-62 NSCLC,> 100 µM
same,TGI,HOP-92 NSCLC,> 100 µM
same,TGI,HS 578T breast,73.4 µM
same,TGI,HT29 colon,> 100 µM
same,TGI,IGROV1 ovarian,> 100 µM
same,TGI,K-562 leukemia,84.4 µM
same,TGI,KM12 colon,> 100 µM
same,TGI,LOX IMVI melanoma,> 100 µM
same,TGI,M14 melanoma,63.1 µM
same,TGI,MALME-3M melanoma,> 100 µM
same,TGI,MCF7 breast,> 100 µM
same,TGI,MDA-MB-231 breast,> 100 µM
same,TGI,MDA-MB-435,20 µM
same,TGI,MDA-N,31.6 µM
same,TGI,MOLT-4 leukemia,> 100 µM
same,TGI,NCI-H226 lung,> 100 µM
same,TGI,NCI-H23 lung,44.6 µM
same,TGI,NCI-H460 lung,> 100 µM
same,TGI,NCI-H522 lung,38.3 µM
same,TGI,NCI/ADR-RES ovarian,42.2 µM
same,TGI,OVCAR-3 ovarian,35.4 µM
same,TGI,OVCAR-4 ovarian,> 100 µM
same,TGI,OVCAR-5 ovarian,> 100 µM
same,TGI,OVCAR-8 ovarian,> 100 µM
same,TGI,PC-3 prostate,> 100 µM
same,TGI,RPMI-8226 leukemia,> 100 µM
same,TGI,RXF 393 renal,37.5 µM
same,TGI,SF-268 CNS,> 100 µM
same,TGI,SF-295 CNS,45.5 µM
same,TGI,SF-539 CNS,75.9 µM
same,TGI,SK-MEL-2 melanoma,> 100 µM
same,TGI,SK-MEL-28 melanoma,> 100 µM
same,TGI,SK-MEL-5 melanoma,> 100 µM
same,TGI,SK-OV-3 ovarian,88.1 µM
same,TGI,SN12C renal,> 100 µM
same,TGI,SNB-19 CNS,> 100 µM
same,TGI,SNB-75 CNS,52.4 µM
same,TGI,SR leukemia,> 100 µM
same,TGI,SW-620 colon,> 100 µM
same,TGI,T-47D breast,> 100 µM
same,TGI,TK-10 renal,> 100 µM
same,TGI,U251 CNS,> 100 µM
same,TGI,UACC-257 melanoma,> 100 µM
same,TGI,UACC-62 melanoma,> 100 µM
same,TGI,UO-31 renal,1.49 µM
C=C1CCCC2[C@](C)(CC3=C(Cl)C(=O)C=C(OC)C3=O)C(C)CC[C@]12C (stereo not given in full),TGI,786-0 renal,6.53 µM
same,TGI,A498 renal,16.2 µM
same,TGI,A549 NSCLC,11.1 µM
same,TGI,ACHN renal,10.7 µM
same,TGI,BT-549 breast,11.4 µM
same,TGI,CAKI-1 renal,8.83 µM
same,TGI,CCRF-CEM leukemia,11.6 µM
same,TGI,COLO 205 colon,9.76 µM
same,TGI,DU-145 prostate,15.2 µM
same,TGI,EKVX NSCLC,5.06 µM
same,TGI,HCC-2998 colon,23.9 µM
same,TGI,HCT-116 colon,6.43 µM
same,TGI,HCT-15 colon,13.9 µM
same,TGI,HL-60(TB) leukemia,10.3 µM
same,TGI,HOP-62 NSCLC,13.5 µM
same,TGI,HOP-92 NSCLC,14.7 µM
same,TGI,HS 578T breast,26 µM
same,TGI,HT29 colon,7.37 µM
same,TGI,IGROV1 ovarian,4.76 µM
same,TGI,K-562 leukemia,13.1 µM
same,TGI,KM12 colon,8.14 µM
same,TGI,LOX IMVI melanoma,4.23 µM
same,TGI,M14 melanoma,10.3 µM
same,TGI,MALME-3M melanoma,16.3 µM
same,TGI,MCF7 breast,6.18 µM
same,TGI,MDA-MB-231 breast,16.9 µM
same,TGI,MDA-MB-435,14.2 µM
same,TGI,MDA-N,13.7 µM
same,TGI,MOLT-4 leukemia,6.99 µM
same,TGI,NCI-H226 lung,14.7 µM
same,TGI,NCI-H23 lung,13.1 µM
same,TGI,NCI-H460 lung,19.4 µM
same,TGI,NCI-H522 lung,3.18 µM
same,TGI,NCI/ADR-RES ovarian,33.2 µM
same,TGI,OVCAR-3 ovarian,11.9 µM
same,TGI,OVCAR-4 ovarian,14.2 µM
same,TGI,OVCAR-5 ovarian,9 µM
same,TGI,OVCAR-8 ovarian,9.78 µM
same,TGI,PC-3 prostate,6.64 µM
same,TGI,RPMI-8226 leukemia,14.6 µM
same,TGI,RXF 393 renal,12.1 µM
same,TGI,SF-268 CNS,11.6 µM
same,TGI,SF-295 CNS,14 µM
same,TGI,SF-539 CNS,9.06 µM
same,TGI,SK-MEL-2 melanoma,13.5 µM
same,TGI,SK-MEL-28 melanoma,17 µM
same,TGI,SK-MEL-5 melanoma,12.5 µM
same,TGI,SK-OV-3 ovarian,46.5 µM
same,TGI,SN12C renal,12.5 µM
same,TGI,SNB-19 CNS,13.9 µM
same,TGI,SR leukemia,13.6 µM
same,TGI,SW-620 colon,10.4 µM
same,TGI,TK-10 renal,11.6 µM
same,TGI,U251 CNS,11.2 µM
same,TGI,UACC-257 melanoma,13.6 µM
same,TGI,UACC-62 melanoma,12.7 µM
same,TGI,UO-31 renal,5.77 µM
